# Results published in ChEMBL document CHEMBL1909046, “DrugMatrix in vitro pharmacology data”.
# Assays:
# [1] = biological target: T1, Receptor-type tyrosine-protein phosphatase C (Homo sapiens, UniProt P08575); set-up: species or system Escherichia coli;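 note: inhibition of CD45 enzyme activity measured using DiFMUP as substrate; in other assays of this panel Not Active means under 50% inhibition at 10 µM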
# T1 sequence (P08575 whole entry): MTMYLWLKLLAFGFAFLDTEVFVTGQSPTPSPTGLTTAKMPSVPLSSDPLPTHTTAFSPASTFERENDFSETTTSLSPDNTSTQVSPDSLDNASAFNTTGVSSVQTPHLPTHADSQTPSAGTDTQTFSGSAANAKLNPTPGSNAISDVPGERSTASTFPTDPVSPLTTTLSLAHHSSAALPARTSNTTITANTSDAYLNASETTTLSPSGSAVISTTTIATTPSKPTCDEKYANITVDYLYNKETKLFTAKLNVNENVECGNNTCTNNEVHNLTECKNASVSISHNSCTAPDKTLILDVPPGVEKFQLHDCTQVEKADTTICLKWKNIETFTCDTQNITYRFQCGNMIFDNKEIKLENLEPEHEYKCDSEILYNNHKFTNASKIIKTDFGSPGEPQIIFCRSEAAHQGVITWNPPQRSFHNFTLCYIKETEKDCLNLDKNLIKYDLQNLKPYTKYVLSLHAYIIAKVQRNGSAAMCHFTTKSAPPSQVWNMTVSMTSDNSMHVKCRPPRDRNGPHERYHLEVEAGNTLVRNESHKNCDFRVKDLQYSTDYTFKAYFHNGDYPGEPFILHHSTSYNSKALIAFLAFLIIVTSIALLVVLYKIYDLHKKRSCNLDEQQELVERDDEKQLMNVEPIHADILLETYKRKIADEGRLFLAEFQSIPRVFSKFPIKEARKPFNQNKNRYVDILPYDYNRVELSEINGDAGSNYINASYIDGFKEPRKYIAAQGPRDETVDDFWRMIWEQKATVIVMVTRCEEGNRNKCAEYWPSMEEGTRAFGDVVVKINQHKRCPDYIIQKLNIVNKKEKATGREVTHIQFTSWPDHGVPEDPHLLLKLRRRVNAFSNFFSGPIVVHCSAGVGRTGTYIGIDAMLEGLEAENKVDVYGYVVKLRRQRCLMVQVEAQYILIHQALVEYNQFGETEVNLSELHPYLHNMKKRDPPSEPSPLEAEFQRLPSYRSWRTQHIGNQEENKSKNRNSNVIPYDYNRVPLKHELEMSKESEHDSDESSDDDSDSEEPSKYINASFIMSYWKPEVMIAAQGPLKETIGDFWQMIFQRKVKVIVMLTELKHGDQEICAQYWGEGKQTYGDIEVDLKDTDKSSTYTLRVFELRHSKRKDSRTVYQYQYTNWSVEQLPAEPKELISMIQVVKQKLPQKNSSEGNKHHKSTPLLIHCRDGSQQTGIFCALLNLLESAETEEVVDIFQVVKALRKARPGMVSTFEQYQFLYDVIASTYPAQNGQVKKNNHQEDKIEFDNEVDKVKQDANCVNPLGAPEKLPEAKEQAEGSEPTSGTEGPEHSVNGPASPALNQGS
# [2] = DRUGMATRIX: Phorbol Ester radioligand binding (ligand: [3H] PDBu); assay type: cell membranes, Mus musculus, ICR, Brain, Membrane; details: Not Active = under 50% inhibition at 10 µM
# Mu-type opioid receptor = Mu-type opioid receptor (Homo sapiens, UniProt P35372); assay: DRUGMATRIX: Opiate mu (OP3, MOP) radioligand binding (ligand: [3H] Diprenorphine); assay type: cell membranes, CHO-K1, Membrane; details: Not Active = under 50% inhibition at 10 µM
# [3] = biological target: Tyrosine-protein kinase Lck (Homo sapiens, UniProt P06239); assay: DRUGMATRIX: Protein Tyrosine Kinase, LCK enzyme inhibition (substrate: Poly(Glu:Tyr)); assay type: cell-based, Insect cells; details: Not Active = under 50% inhibition at 10 µM
# Cannabinoid receptor 1 = Cannabinoid receptor 1 (Homo sapiens, UniProt P21554); assay type: cell membranes, Chem-1, Membrane; details: chem-1; note: in other assays of this panel Not Active means under 50% inhibition at 10 µM
# [4] = DRUGMATRIX: Glutamate, AMPA radioligand binding (ligand: [3H] AMPA); assay type: cell membranes, Rattus norvegicus, Wistar, Cerebral cortex, Membrane; details: Not Active = under 50% inhibition at 10 µM
# Thromboxane-A synthase = biological target: T2, Thromboxane-A synthase (Homo sapiens, UniProt P24557); assay: biochemical; assay type: tissue-based, Platelet; details: platelet;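 note: enzyme inhibition assay with PGH2 supplied as substrate; in other assays of this panel Not Active means under 50% inhibition at 10 µM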
# T2 sequence (P24557 whole entry): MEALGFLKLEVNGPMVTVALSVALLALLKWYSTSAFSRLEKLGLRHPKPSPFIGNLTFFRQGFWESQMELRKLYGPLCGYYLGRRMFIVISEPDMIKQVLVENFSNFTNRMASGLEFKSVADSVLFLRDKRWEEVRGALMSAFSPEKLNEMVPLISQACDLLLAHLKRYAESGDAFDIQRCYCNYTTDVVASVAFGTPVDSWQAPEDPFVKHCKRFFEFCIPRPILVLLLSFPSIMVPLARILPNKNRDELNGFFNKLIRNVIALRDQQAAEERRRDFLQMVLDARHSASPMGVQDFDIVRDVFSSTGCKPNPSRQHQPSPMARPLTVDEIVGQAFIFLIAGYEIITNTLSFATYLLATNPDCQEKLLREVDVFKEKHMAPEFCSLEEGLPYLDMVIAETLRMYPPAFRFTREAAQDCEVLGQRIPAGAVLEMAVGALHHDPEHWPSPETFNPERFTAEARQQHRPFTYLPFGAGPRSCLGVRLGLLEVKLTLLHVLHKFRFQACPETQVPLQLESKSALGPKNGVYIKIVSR
# Cannabinoid receptor 1, sequence (P21554 whole entry): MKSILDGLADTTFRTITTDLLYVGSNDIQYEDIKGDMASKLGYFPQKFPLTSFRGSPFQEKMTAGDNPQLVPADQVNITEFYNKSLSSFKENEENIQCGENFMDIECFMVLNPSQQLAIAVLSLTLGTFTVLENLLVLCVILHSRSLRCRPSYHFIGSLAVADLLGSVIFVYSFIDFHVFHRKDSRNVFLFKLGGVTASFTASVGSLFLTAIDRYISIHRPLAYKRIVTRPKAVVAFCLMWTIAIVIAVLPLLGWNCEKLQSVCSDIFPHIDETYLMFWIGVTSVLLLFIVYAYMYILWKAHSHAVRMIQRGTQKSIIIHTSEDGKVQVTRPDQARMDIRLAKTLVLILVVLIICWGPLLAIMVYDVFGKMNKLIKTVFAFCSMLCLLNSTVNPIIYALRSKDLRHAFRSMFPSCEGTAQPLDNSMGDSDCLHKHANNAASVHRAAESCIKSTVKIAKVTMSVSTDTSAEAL
# Mu-type opioid receptor, sequence (P35372 whole entry): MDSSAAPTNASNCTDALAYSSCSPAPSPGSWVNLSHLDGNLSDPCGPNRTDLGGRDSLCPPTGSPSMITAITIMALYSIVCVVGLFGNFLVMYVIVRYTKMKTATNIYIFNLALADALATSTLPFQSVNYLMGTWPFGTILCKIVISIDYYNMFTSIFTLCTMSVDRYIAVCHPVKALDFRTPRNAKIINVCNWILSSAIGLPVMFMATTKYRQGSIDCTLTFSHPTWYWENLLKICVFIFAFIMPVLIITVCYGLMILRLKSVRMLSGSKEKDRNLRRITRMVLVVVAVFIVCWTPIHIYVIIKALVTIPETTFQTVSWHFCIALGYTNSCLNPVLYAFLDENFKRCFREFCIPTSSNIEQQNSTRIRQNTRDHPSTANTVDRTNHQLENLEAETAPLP
# Tyrosine-protein kinase Lck, sequence (P06239 whole entry): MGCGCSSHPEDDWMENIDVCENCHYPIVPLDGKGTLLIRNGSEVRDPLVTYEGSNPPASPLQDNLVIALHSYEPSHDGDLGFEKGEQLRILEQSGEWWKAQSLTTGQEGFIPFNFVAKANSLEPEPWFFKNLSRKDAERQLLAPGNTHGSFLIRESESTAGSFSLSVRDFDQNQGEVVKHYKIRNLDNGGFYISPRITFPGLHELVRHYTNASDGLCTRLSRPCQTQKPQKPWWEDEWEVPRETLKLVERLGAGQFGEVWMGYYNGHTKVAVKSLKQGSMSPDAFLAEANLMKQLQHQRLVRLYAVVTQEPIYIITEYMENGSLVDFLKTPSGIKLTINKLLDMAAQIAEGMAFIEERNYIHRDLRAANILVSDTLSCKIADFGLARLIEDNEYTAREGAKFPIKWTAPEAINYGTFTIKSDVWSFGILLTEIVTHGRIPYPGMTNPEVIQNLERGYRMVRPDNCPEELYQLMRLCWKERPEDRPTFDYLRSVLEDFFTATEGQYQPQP
Structure (SMILES),IC50 [1],IC50 [2],Ki [2],IC50 (Mu-type opioid receptor; cho-k1),IC50 ([3]; insect cells),IC50 (Cannabinoid receptor 1),IC50 [4],Ki [4],IC50 (Thromboxane-A synthase),Ki (Mu-type opioid receptor),IC50 (Mu-type opioid receptor; read-out: IC50),IC50 ([3]; read-out: IC50)
NC(=O)N1C(=O)/C(=C(\O)c2cccs2)c2cc(Cl)ccc21 [TENIDAP],Not Active,Not Active,Not Active,Not Active,Not Active,Not Active,Not Active,Not Active,Not Active,,,
O=C1C(CC[S+]([O-])c2ccccc2)C(=O)N(c2ccccc2)N1c1ccccc1 (stereo unspecified) [SULFINPYRAZONE],Not Active,Not Active,Not Active,Not Active,Not Active,Not Active,Not Active,Not Active,Not Active,,,
C[C@H]1C[C@@H]2[C@H]([C@@H](O)C[C@@]3(C)[C@H]2CC[C@]3(O)C(=O)CO)[C@@]2(C)C=CC(=O)C=C12 [METHYLPREDNISOLONE],Not Active,Not Active,Not Active,Not Active,Not Active,Not Active,Not Active,Not Active,Not Active,,,
N#Cc1ccc(C(c2ccc(C#N)cc2)n2cncn2)cc1 [LETROZOLE],Not Active,Not Active,Not Active,Not Active,Not Active,Not Active,Not Active,Not Active,Not Active,,,
COc1cc2nc(N3CCN(C(=O)C4CCCO4)CC3)nc(N)c2cc1OC (stereo unspecified) [TERAZOSIN],Not Active,Not Active,Not Active,Not Active,Not Active,Not Active,Not Active,Not Active,Not Active,,,
O=C(O)c1cn(-c2ccc(F)cc2)c2cc(N3CCNCC3)c(F)cc2c1=O [SARAFLOXACIN],Not Active,Not Active,Not Active,Not Active,Not Active,Not Active,Not Active,Not Active,Not Active,,,
CO[C@H]1/C=C/O[C@@]2(C)Oc3c(C)c(O)c4c(O)c(c(/C=N/N5CCN(C6CCCC6)CC5)c(O)c4c3C2=O)NC(=O)/C(C)=C\C=C\[C@H](C)[C@H](O)[C@@H](C)[C@@H](O)[C@@H](C)[C@H](OC(C)=O)[C@@H]1C [RIFAPENTINE],Not Active,Not Active,Not Active,Not Active,Not Active,Not Active,Not Active,Not Active,Not Active,,,
CCCCOc1cc(CC2CNC(=O)N2)ccc1OC (stereo unspecified) [RO-201724],Not Active,Not Active,Not Active,Not Active,Not Active,Not Active,Not Active,Not Active,Not Active,,,
CCCCNc1ccc(C(=O)OCCN(C)C)cc1 [TETRACAINE],Not Active,Not Active,Not Active,Not Active,Not Active,Not Active,Not Active,Not Active,Not Active,,,
CCN(CC)CCNC(=O)c1cc(S(C)(=O)=O)ccc1OC [TIAPRIDE],Not Active,Not Active,Not Active,Not Active,Not Active,Not Active,Not Active,Not Active,Not Active,,,
O.O.O.O.O.O.[Cl-].[Cl-].[Sr+2] [STRONTIUM CHLORIDE HEXAHYDRATE],Not Active,Not Active,Not Active,Not Active,Not Active,Not Active,Not Active,Not Active,Not Active,,,
CNC1(c2ccccc2Cl)CCCCC1=O (stereo unspecified) [KETAMINE],Not Active,Not Active,Not Active,Not Active,Not Active,Not Active,Not Active,Not Active,Not Active,,,
CCN(CC)CC(=O)Nc1c(C)cccc1C [LIDOCAINE],Not Active,Not Active,Not Active,Not Active,Not Active,Not Active,Not Active,Not Active,Not Active,,,
Nc1cc(N2CCCCC2)nc(N)[n+]1[O-] [MINOXIDIL],Not Active,Not Active,Not Active,Not Active,Not Active,Not Active,Not Active,Not Active,Not Active,,,
COc1c2occc2cc2ccc(=O)oc12 [METHOXSALEN],Not Active,Not Active,Not Active,Not Active,Not Active,Not Active,Not Active,Not Active,Not Active,,,
Cc1c(C)c2c(c(C)c1O)CCC(C)(CN1CCN(c3cc(N4CCCC4)nc(N4CCCC4)n3)CC1)O2 (stereo unspecified),Not Active,Not Active,Not Active,,,Not Active,Not Active,Not Active,Not Active,4.36 µM,10.7 µM,17.1 µM
CS(=O)(=O)c1ccc([C@@H](O)[C@@H](CO)NC(=O)C(Cl)Cl)cc1 [THIAMPHENICOL],Not Active,Not Active,Not Active,Not Active,Not Active,Not Active,Not Active,Not Active,Not Active,,,
Clc1ccccc1CN1CCc2sccc2C1 [TICLOPIDINE],Not Active,Not Active,Not Active,Not Active,Not Active,Not Active,Not Active,Not Active,Not Active,,,
CC(C)Oc1ccc2c(=O)c(-c3ccccc3)coc2c1 [IPRIFLAVONE],Not Active,Not Active,Not Active,Not Active,Not Active,Not Active,Not Active,Not Active,Not Active,,,
CCN1CCC[C@H]1CNC(=O)c1cc(S(N)(=O)=O)ccc1OC [LEVOSULPIRIDE],Not Active,Not Active,Not Active,Not Active,Not Active,Not Active,Not Active,Not Active,Not Active,,,
